Format in all cases: in vivo
One assay has as its system 6 Hz psychomotor seizure. The experiment in a line: Mouse 6 Hz model. The settings on record: mice, ip, 0.5 hour, 32 mA. As for the experimental part: Male, Sprague-Dawley rats and CD-1 mice were used for all studies. All animals were allowed ad-lib access to food and water except during experiment. Animals were housed within an animal vivarium maintained under a 12 h light:dark cycle (lights on: 07:00 h), and all experiments were conducted in the animals light phase. For all experiments, animals were habituated to the vivarium for a minimum of 72 h before experimentation. The experimental procedures used in the present investigation were conducted under the Association for Assessment and Accreditation of Laboratory Animal Care (AAALAC) and the Canadian Council on Animal Care (CCAC) guidelines. All compounds were sonicated in 5% Tween 80® in saline or methylcellulose 0.5% (wgt/vol), using MC and sterile water and injected in a dose volume of 5 ml/kg or 10 ml/kg (rat), and 10 ml/kg (mouse). Drugs were administered by either the oral, intraperitoneal or intravenous route. […] Preliminary experiments established that these stimulus parameters elicited a psychomotor seizure, defined as the expression of at least one of the following behaviors: stun/immobility, forelimb clonus, straub tail, vibrissae tremor, lateral head movement in >95% of control animals. Protection was defined as complete absence of all the above behaviors within 20 s of stimulus delivery. The effective dose of compound necessary to protect against psychomotor seizures to 50% of controls (i.e. ED50) was determined by curve fitting program (Prism v.4.02).

Assay [1] relates to fully kindled (stage 5) seizures, amygdala kindled rat. The experiment in a line: Amygdala kindled rat model. Conditions: <60 mg/kg i.p. The text has this: Amygdala kindling model is an animal model for complex partial seizures, which is the most common type of epilepsy in adults and is often drug resistant.
The subject of another assay is corneal kindled seizures. The assay can be described thus: Corneal kindling mouse model. The text has this:
Mice are kindled electrically with 3 sec stimulation, 8 mA, 60 Hz, and corneal electrodes to a criterion of 10 consecutive Stage 5 seizures (facial clonus and head nodding progressing to forelimb clonus, and finally rearing and falling accompanied by a generalized clonic seizure as described by Racine). Stage 5 is generally reached after twice daily stimulation for 8 days. With continued stimulation once a day, animals usually progress to a reproducible Stage 5 after 10-14 additional days. At least 72 hours after the mice have been kindled, the test substance is administered either i.p. or p.o. and, at the previously determined TPE, each animal is given the electrical stimulus indicated above. Following stimulation, the animals are observed for the presence or absence of the rearing and falling criteria of a Stage 5 seizure. Treated animals not displaying a Stage 3, 4, or 5 seizure are considered protected. The dose of the test substance is varied between the limits of 0 and 100% efficacy, and the ED50 and 95% confidence intervals calculated by probit analysis. Mean values and the S.E.M. are calculated for the length of clonus and seizure duration and p values are determined by the Student's t-test.

For assay [2], the system named is lithium pilocarpine-induced status epilepticus. The experiment in a line: Pilocarpine-induced status epilepticus rat model. As for the experimental part:
While most seizures are often short duration events that resolve spontaneously, status epilepticus (SE) events are characterized by continuous epileptic seizures or a series of seizures lasting longer than 30 minutes. Typically, treatment of SE requires emergency room intervention with either diazepam or lorazepam, immediately followed by phenytoin or phenobarbital. However, up to 15% of SE episodes can be refractory to these conventional therapies, thus identifying novel treatments that can be applied in the drug-refractory period, i.e. benzodiazepine-resistant SE, is of critical value to the clinical management of SE. The lithium-pilocarpine model is used to study the effects of a test compound on benzodiazepine-resistant SE. Sprague Dawley rats (n=8 per group; 100-150 g) are injected with lithium chloride (LiCl) solution (127 mg/kg). Animals are then used for the lithium pilocarpine-induced SE test 20-24 hours following LiCl injection. On the day of the test, animals are weighed and then injected with pilocarpine (50 mg/kg; i.p.) before being placed in an observation cage. In the initial convulsive-SE behavioral observation studies, adult rats receive a dose of the investigational compound, which was found in rat MES quantification to produce MMI. […] The ED50 and ED97 in this behavioral assay (30 minute time point) are determined for promising investigational compounds.

One may read the ED50 as the dose that gives a 50% effect, or the effect in half of the subjects. For the molecule `NC(=O)COc1cc(C(F)(F)F)cc(C(F)(F)F)c1` [I(F), 2-[3,5 bis(trifluoromethyl)-phenoxy]acetamide;], the ED50 with 6 Hz psychomotor seizure turned out to be 38.5 ± 1 mg/kg.

Consider `C[C@@H](Oc1cc(Cl)cc(C(F)(F)F)c1)C(N)=O` [I(D), (2R)-2-[3-chloro-5-(trifluoromethyl)-phenoxy]propanamide], for which the ED50 in the assay on 6 Hz psychomotor seizure was found to be 48.5 ± 1 mg/kg; with corneal kindled seizures (Mus musculus, corneal kindled mice, read-out: ED50, reduction of seizure score (seizure severity)), 70.4 ± 1 mg/kg. Further, the “suppression of fully kindled (stage 5) seizures compared to vehicle controls” value in assay [1] was “dose related suppression”. Also, the “Average Seizure” value is recorded as 5 in the assay on corneal kindled seizures (35 mg/kg), 4.6 in the assay with corneal kindled seizures (70 mg/kg), 2.4 in the assay with corneal kindled seizures (140 mg/kg) and 0.8 in the assay on corneal kindled seizures (300 mg/kg). Besides, the “N/F, number of animals active over the number tested” value in the assay with corneal kindled seizures (35 mg/kg) is recorded as 0/8; with corneal kindled seizures (70 mg/kg) it was 1/8; in the assay with corneal kindled seizures (140 mg/kg), 5/8; in the assay on corneal kindled seizures (300 mg/kg) it was 8/8. Besides, the “effect in chemically induced SE, administered 30 minutes after the appearance of seizures” value in assay [2] (130 mg/kg) is given as “effective”. In addition, the “effect in chemically induced SE, administered at the time of the chemical insult” value in assay [2] (time zero, 65 mg/kg) is listed as “effective”.

For the origin of these results see US10604476B2, “Fluorinated amide derivatives and their uses as therapeutic agents” (Trillium Therapeutics Inc., priority 2015, dated 2020).
